From the supplement of paper PMC10627819

Tests used:
B. subtilis 168 [1] = assay: fitness (endpoint OD595 vs no drug) (fraction); higher = more growth
Outline: (§1)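 Each well of a 384-well plate received 30 µl of culture at OD595 0.01, or 55 µl for S. pneumoniae. TSB, LB Lennox or CY served as media at 37 °C. OD595 was taken every 30 min for 14 h and corrected by subtracting the first reading. Fitness is the optical density at stationary-phase entry divided by the robust mean of no-drug controls, capped at 1.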

S. aureus DSM 20231 [2] = assay: as above
Outline: as §1

S. pneumoniae D39V [3] = assay: as above
Outline: as §1

B. subtilis 168 [4] = assay: Bliss interaction score (quartile over a dose matrix) (fitness difference); higher = more antagonism (negative = synergy)
Outline: (§2)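 Fitness is OD595 at stationary-phase entry relative to the plate's robust no-drug mean, capped at 1. Single-drug fitness was inferred from combinations. The Bliss score is observed minus product-expected fitness, summarised by quartiles over technical, biological and donor/recipient replicates.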

S. aureus DSM 20231 [5] = assay: as above
Outline: as §2

S. aureus Newman = assay: as above
Outline: as §2

S. pneumoniae D39V [6] = assay: as above
Outline: as §2
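Wherever Bliss interaction score (quartile over a dose matrix) is given: first quartile when negative (synergy) and third quartile when positive (antagonism).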

CC(=O)NC[C@H]1CN(c2ccc(N3CCOCC3)c(F)c2)C(=O)O1 [Linezolid] + CN(N=O)C(=O)N[C@@H](C=O)[C@@H](O)[C@H](O)[C@H](O)CO [Streptozotocin]
fitness, one replicate
Conditions | partner 0.15 µg/mL | partner 0.3 µg/mL | partner 0.6 µg/mL | partner 1.2 µg/mL | partner 2.4 µg/mL | partner 4.8 µg/mL
B. subtilis 168 [1], first compound 0.0625 µg/mL | 0.957 | 0.927 | 0.929 | – | – | –
B. subtilis 168 [1], first compound 0.5 µg/mL | 0.0222 | 0.0242 | 0.0095 | – | – | –
S. aureus DSM 20231 [2], first compound 1 µg/mL | 0.023 | 0.0376 | 0.0265 | – | – | –
S. pneumoniae D39V [3], first compound 0.2 µg/mL | – | – | – | 0.806 | 0.823 | 0.787
S. pneumoniae D39V [3], first compound 0.4 µg/mL | – | – | – | 0.615 | 0.69 | 0.653
S. pneumoniae D39V [3], first compound 0.8 µg/mL | – | – | – | 0.299 | 0.351 | 0.204

fitness
Conditions | partner 0.15 µg/mL | partner 0.3 µg/mL | partner 0.6 µg/mL | partner 1.2 µg/mL | partner 2.4 µg/mL | partner 4.8 µg/mL
B. subtilis 168 [1], first compound 0.125 µg/mL | 0.479 | 0.502 | 0.453 | – | – | –
B. subtilis 168 [1], first compound 0.25 µg/mL | 0.0775 | 0.0625 | 0.0614 | – | – | –
S. aureus DSM 20231 [2], first compound 0.125 µg/mL | 0.778 | 0.738 | 0.68 | – | – | –
S. aureus DSM 20231 [2], first compound 0.25 µg/mL | 0.519 | 0.504 | 0.496 | – | – | –
S. aureus DSM 20231 [2], first compound 0.5 µg/mL | 0.129 | 0.176 | 0.133 | – | – | –
S. pneumoniae D39V [3], first compound 0.105 µg/mL | – | – | – | 0.771 | 0.815 | 0.778
S. pneumoniae D39V [3], first compound 0.21 µg/mL | – | – | – | 0.69 | 0.668 | 0.704
S. pneumoniae D39V [3], first compound 0.42 µg/mL | – | – | – | 0.438 | 0.432 | 0.408

Conditions | Bliss interaction score
B. subtilis 168 [4] | -0.0322
S. aureus DSM 20231 [5] | -0.0379
S. aureus Newman | -0.0367
S. pneumoniae D39V [6] | -0.115

CC(=O)NC[C@H]1CN(c2ccc(N3CCOCC3)c(F)c2)C(=O)O1 [Linezolid] + CN[C@@H]1[C@H](O)[C@H](NC)[C@H]2O[C@@]3(O)C(=O)C[C@@H](C)O[C@H]3O[C@@H]2[C@H]1O [Spectinomycin]
one replicate
Conditions | fitness
B. subtilis 168 [1], first compound 0.0625 µg/mL, partner 2 µg/mL | 0.893
B. subtilis 168 [1], first compound 0.0625 µg/mL, partner 4 µg/mL | 0.814
B. subtilis 168 [1], first compound 0.0625 µg/mL, partner 8 µg/mL | 0.654
S. aureus DSM 20231 [2], first compound 0.125 µg/mL, partner 32 µg/mL | 0.472
S. aureus DSM 20231 [2], first compound 0.125 µg/mL, partner 64 µg/mL | 0.0532
S. aureus DSM 20231 [2], first compound 0.25 µg/mL, partner 32 µg/mL | 0.341
S. aureus DSM 20231 [2], first compound 0.25 µg/mL, partner 64 µg/mL | 0.037
S. aureus DSM 20231 [2], first compound 0.5 µg/mL, partner 32 µg/mL | 0.135
S. aureus DSM 20231 [2], first compound 0.5 µg/mL, partner 64 µg/mL | 0.0476
S. aureus DSM 20231 [2], first compound 1 µg/mL, partner 4 µg/mL | 0.0244
S. aureus DSM 20231 [2], first compound 1 µg/mL, partner 8 µg/mL | 0.0183
S. aureus DSM 20231 [2], first compound 1 µg/mL, partner 16 µg/mL | 0.009
S. pneumoniae D39V [3], first compound 0.2 µg/mL, partner 4 µg/mL | 0.8
S. pneumoniae D39V [3], first compound 0.2 µg/mL, partner 8 µg/mL | 0.769
S. pneumoniae D39V [3], first compound 0.4 µg/mL, partner 4 µg/mL | 0.633
S. pneumoniae D39V [3], first compound 0.4 µg/mL, partner 8 µg/mL | 0.659
S. pneumoniae D39V [3], first compound 0.8 µg/mL, partner 4 µg/mL | 0.271
S. pneumoniae D39V [3], first compound 0.8 µg/mL, partner 8 µg/mL | 0.302

fitness
Conditions | partner 2 µg/mL | partner 4 µg/mL | partner 8 µg/mL | partner 16 µg/mL
B. subtilis 168 [1], first compound 0.125 µg/mL | 0.507 | 0.426 | 0.336 | –
B. subtilis 168 [1], first compound 0.25 µg/mL | – | 0.0516 | 0.0689 | –
B. subtilis 168 [1], first compound 0.5 µg/mL | 0.0491 | 0.039 | 0.0208 | –
S. aureus DSM 20231 [2], first compound 0.125 µg/mL | – | 0.857 | 0.838 | 0.702
S. aureus DSM 20231 [2], first compound 0.25 µg/mL | – | 0.547 | 0.458 | 0.419
S. aureus DSM 20231 [2], first compound 0.5 µg/mL | – | 0.156 | 0.119 | 0.175
S. pneumoniae D39V [3], first compound 0.105 µg/mL | – | 0.767 | 0.73 | 0.694
S. pneumoniae D39V [3], first compound 0.21 µg/mL | – | 0.663 | 0.662 | 0.582
S. pneumoniae D39V [3], first compound 0.42 µg/mL | – | 0.454 | 0.343 | 0.284

Conditions | Bliss interaction score
B. subtilis 168 [4] | -0.0551
S. aureus DSM 20231 [5] | -0.0609
S. aureus Newman | -0.12
S. pneumoniae D39V [6] | -0.134
